Values quoted from earlier work, collected in patent US11602509B2, “Salt of cysteamine for the preparation of highly respirable particles” (RECORDATI INDUSTRIA CHIMICA E FARMACEUTICA SPA, priority 2018, dated 2023).

pKa: 9.42
Structure (SMILES): NCCS [cysteamine free base, cysteamine]
